Test results as given in PubChem BioAssay AID351 (ChemBlock, 2006).
Activity calls are given as the source filed them.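 The calls were made as follows: active = compounds that disrupt early egg division and make hatched embryos spin fast in place instead of swimming forward; inactive = the rest.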

assay: sea urchin embryo cleavage alteration, tubulin destabilizer project, whole organism, microscopy (AID 351); conditions: sea urchin embryo, cleavage alteration, microscopy

SMILES | outcome
O=C(Nc1cccnc1Cl)C(=O)c1cn(Cc2ccc(Cl)cc2)c2ccccc12 | inactive; up to 2.5 mM
COC(=O)c1cc(=O)c(O)c2c(O)c(O)c(OC)cc2c1 | inactive; up to 20 mM
NC(=O)c1nscc1NCc1ccncc1 | inactive; up to 5 µM
c1cncc(CNc2cn[nH]c2-c2nnc(Nc3ccc4c(c3)OCCO4)o2)c1 | inactive; up to 10 µM
c1cnc(-c2nc(-c3ccc4c(c3)OCO4)no2)cn1 | inactive; up to 5 µM
CCN(CC)C(=O)C(=O)c1cn(Cc2ccc(F)cc2)c2ccccc12 | inactive; up to 50 µM
Nc1cc2c(cc1C(=O)c1ccccc1)OCCO2 | inactive; up to 5 mM
COc1cc(-c2nc(-c3ccncc3)no2)cc(OC)c1OC | inactive; up to 10 µM
NC(=O)C(=O)c1cn(Cc2ccc(F)cc2)c2ccccc12 | inactive; up to 50 µM
Cn1cnc(NCc2cccnc2)c1-c1nnc(Nc2ccc3c(c2)OCCO3)o1 | inactive; up to 2.5 µM
Cc1[nH]c2ccc(OC(F)(F)F)cc2c1CCNC(=O)Cc1ccc(Cl)cc1 | inactive; up to 10 µM
COc1ccc(CNc2ccccc2-c2nn[nH]n2)cc1OC | inactive; up to 20 mM
COc1ccc(-c2csc(Nc3ccccc3OC)n2)cc1Br | inactive; up to 5 mM
COc1ccc(/C=C(/C(=O)O)c2cc(OC)c(OC)c(OC)c2)cc1O | inactive; up to 10 mM
COc1cc(OC)c2c(c1)OC(c1ccc(OC)c(OC)c1)C(O)C2=O (centres undefined) | inactive; up to 10 µM
COc1ccc2[nH]c(C(=O)O)c(CCNC(C)=O)c2c1 | inactive; up to 50 µM
Nc1nonc1-c1cccnc1 | inactive; up to 100 mM
Nc1csnc1C(=O)Nc1cccc(C(F)(F)F)c1 | inactive; up to 5 µM
Cc1[nH]c2ccc(OC(F)(F)F)cc2c1CCN1C(=O)C2CCCCC2C1=O (centres undefined) | inactive; up to 10 µM
Cc1nc2ccccn2c1-c1csc(Nc2ccc(Br)cc2Br)n1 | inactive; up to 5 mM
CC(=O)Nc1ccccc1-c1cc(C)c2ccccc2n1 | inactive; up to 50 µM
O=C(C(=O)c1ccc2c(c1)OCO2)c1ccc2c(c1)OCO2 | inactive; up to 2 mM
Nc1cn[nH]c1-c1nc(-c2ccc(C(F)(F)F)cc2)n[nH]1 | inactive; up to 50 mM
COc1ccc(Cc2nn[nH]n2)cc1OC | inactive; up to 50 µM
COc1ccc(-c2oc(=O)oc2-c2ccc(OC)c(OC)c2)cc1OC | inactive; up to 5 mM

SMILES | outcome
CC(=O)OC1C(=O)C2C(O)CC3OCC3(OC(C)=O)C2C(OC(=O)c2ccccc2)C2(O)CC(OC(=O)C(O)C(NCc3ccccc3)c3ccccc3)C(C)=C1C2(C)C (centres undefined) | inactive; up to 50 µM
Brc1cccc(-c2n[nH]c(-c3[nH]ncc3NCc3ccc4c(c3)OCO4)n2)c1 | inactive; up to 5 mM
Clc1ccc(-c2[nH]c(-c3cccc(C#Cc4ccccc4)c3)nc2-c2ccccc2)cc1 | inactive; up to 5 mM
COc1cccc(NC(=O)C(=O)c2c[nH]c3ccccc23)c1 | inactive; up to 5 mM
O=C1c2c(O)cc(O)cc2OC(c2ccc(O)c(O)c2)C1O (centres undefined) | inactive; up to 50 µM
NC(=O)c1nscc1NCc1cccnc1 | inactive; up to 50 µM
O=C(CC1(O)C(=O)N(Cc2ccc(F)cc2)c2ccccc21)c1ccc2c(c1)OCO2 (centres undefined) | inactive; up to 2.5 µM
COc1ccc(C(=O)c2c(N)nc3n2CCC3)cc1OC | inactive; up to 5 mM
COc1ccc(Nc2nc(-c3ccc(OC)c(OC)c3)cs2)cc1 | inactive; up to 50 µM
COc1ccc(-c2nc(Nc3nc(C)cc(C)n3)n[nH]2)cc1OC | inactive; up to 10 µM
COc1ccc(C2=NOC3C4COC(O4)C(=O)C23)cc1 (centres undefined) | inactive; up to 5 mM
COc1cc(-c2nnc(Nc3ccc4c(c3)OCO4)o2)cc(OC)c1OC | inactive; up to 5 µM
O=C(Nc1cccc(F)c1)C(=O)c1cn(Cc2ccc(Cl)cc2)c2ccccc12 | inactive; up to 5 mM
COc1ccc2[nH]cc(CCNC(C)=O)c2c1 | inactive; up to 50 µM
COc1cc(N)c(C(O)c2nccc3cc(OC)c(OC)cc23)cc1OC (centres undefined) | inactive; up to 50 µM
O=C(Nc1cccc(C(F)(F)F)c1)c1nscc1NCc1ccncc1 | inactive; up to 1 µM
COc1ccc(-c2nn[nH]n2)cc1OC | inactive; up to 100 µM
O=C(Nc1cccc(Cl)c1)C(=O)c1cn(Cc2ccc(Cl)cc2)c2ccccc12 | inactive; up to 5 mM
COC(=O)c1ccccc1NC(=O)Cn1nnc(-c2ccc(OC)cc2)n1 | inactive; up to 5 mM
O=C(Nc1ccc(C(F)(F)F)cc1)C(=O)c1cn(Cc2ccc(Cl)cc2)c2ccccc12 | inactive; up to 0.5 µM
O=C(Nc1ccc(F)cc1)C(=O)c1cn(Cc2ccc(Cl)cc2)c2ccccc12 | inactive; up to 5 mM
COc1ccc2[nH]cc(CCNC(=O)C(F)(F)F)c2c1 | inactive; up to 50 µM
COc1ccc2[nH]c(C)c(CCN3C(=O)C4CCCCC4C3=O)c2c1 (centres undefined) | inactive; up to 50 µM
Nc1csnc1-c1nnc(Nc2ccc3c(c2)OCO3)o1 | inactive; up to 5 µM
